# From patent US4582845A, “Pharmaceutical composition for injection” (Sumitomo Pharmaceuticals Co., Ltd., priority 1980, dated 1986)
# What was measured:
# Assay type in all cases: physicochemical
# [1] = Solubility in aqueous solutions of surfactants/additives and non-aqueous vehicles (Experimental Example 6)
# Method: (§1) Excess amounts of the Compound A were dispersed in aqueous solutions containing various surfactants and additives, respectively. In each case, the solubility of the compound was determined by measuring the light absorbance at 277 nm with the filtrate. For non-aqueous vehicles marked with *, the corresponding solubility of the compound was judged by eye-measurement.
# [2] = Solubility in water; settings: 25° C., as free base form
# [3] = Coloration of Compound A on exposure to oxygen, heat or light
# [4] = Solubility in solutions of basic substances (Experimental Example 7)
# Method: as §1
# Using the same procedures as stated in Experimental Example 6, solubility measurements were carried out.
structure (smiles),measurement,setting,value
"NC(=O)c1nc[nH]c1O [Compound A, 4-carbamoyl-5-hydroxyimidazole]",solubility,[1]; 5% amycol no. 1,5100 µg/mL
same,solubility,[1]; 5% ethylurea,5600 µg/mL
same,solubility,[1]; 5% levulinic acid,6300 µg/mL
same,solubility,[1]; 5% nicotinic amide,7200 µg/mL
same,solubility,"[1]; 5% polyoxyethylene hydrogenated castor oil, organic solvent or mixture",4500 µg/mL
same,solubility,[1]; 5% polyoxyethylene sorbitan monooleate,4600 µg/mL
same,solubility,[1]; 5% sodium lauryl sulfate,4700 µg/mL
same,solubility,[1]; 5% sodium salicylate,6500 µg/mL
same,solubility,[1]; 5% tartaric acid,7000 µg/mL
same,solubility,[1]; 10% mannitol,4600 µg/mL
same,Solubility (in words),[1]; 10% sodium deoxycholate,white gel
same,solubility,"[1]; corn oil, organic solvent or mixture",< 2000 µg/mL
same,solubility,"[1]; cotton seed oil, organic solvent or mixture",< 2000 µg/mL
same,solubility,"[1]; ethanol, organic solvent or mixture",< 2000 µg/mL
same,solubility,"[1]; glycerine, organic solvent or mixture",~3000 µg/mL
same,solubility,"[1]; n,n-dimethylacetamide, organic solvent or mixture",< 2000 µg/mL
same,solubility,"[1]; polyethylene glycol, organic solvent or mixture",< 2000 µg/mL
same,solubility,"[1]; propylene glycol, organic solvent or mixture",~5000 µg/mL
same,solubility,[1]; saturated aspartic acid,5400 µg/mL
same,Solubility (in words),[1]; saturated gentisic acid,white gel
same,solubility,[1]; saturated glutamic acid,5300 µg/mL
same,solubility,"[1]; sesame oil, organic solvent or mixture",< 2000 µg/mL
same,solubility,[1]; water,4700 µg/mL
same,solubility,[2],~4700 µg/mL
same,coloration / instability,[3],"so unstable that it is easily colored upon exposure to oxygen, heat, or light"
same,solubility,"[4]; pH 8.2, 5% L-lysine, pH of solvent 8.20",10700 µg/mL
same,solubility,"[4]; pH 8.42, aqueous buffer, NaHCO3-Na2CO3 buffer, pH of solvent 8.42",26700 µg/mL
same,solubility,"[4]; pH 8.44, 5% borax, pH of solvent 8.44",22200 µg/mL
same,solubility,"[4]; pH 8.5, 0.5% NaOH, pH of solvent 8.50",21400 µg/mL
same,solubility,"[4]; pH 8.56, 5% trishydroxy methylamino methane, pH of solvent 8.56",25700 µg/mL
same,solubility,"[4]; pH 8.64, 1% ethanolamine, pH of solvent 8.64",24900 µg/mL
same,solubility,"[4]; pH 8.69, 5% L-arginine, pH of solvent 8.69",33500 µg/mL
